# Data taken from patent US9487794B2, “Feruloyl-CoA:monolignol transferase” (Board of Trustees of Michigan State University, priority 2010, dated 2016).
# Tests used:
# [1] = system: feruloyl-CoA:monolignol transferase (FMT); test: Feruloyl-CoA:monolignol transferase (FMT) enzymatic assay, substrate test with UPLC detection of product; type: biochemical, Angelica sinensis; details: purified recombinant FMT; for FMT activity with monolignol as acyl acceptor: feruloyl-CoA as acyl donor (FIGS. 2, 4, 5); for product formed from CoA thioester as acyl donor: coniferyl alcohol as acyl acceptor (FIGS. 2, 6, 7)
# Protocol: The feruloyl-CoA, p-coumaroyl-CoA, and caffeoyl-CoA substrates used in the FMT assay were enzymatically synthesized using the tobacco 4-coumarate-CoA-ligase (4CL) with a c-terminal HIS tag in pCRT7/CT TOPO, provided by Eran Pichersky. Following a method modified from Beuerle and Pichersky (Anal. Biochem. 302(2): 305-12 (2001)) 3.3 mg of ferulic acid, coumaric acid or caffeic acid, 2 mg coenzyme A, and 6.9 mg ATP were added to 50 mM Tris-hydrochloride pH 8 and 2.5 mM magnesium chloride in a final volume of 10 ml. The reaction was started by adding 0.25 mg 4CL, protein purified as described by the method of Beurerle and Pichershy. After a five-hour incubation at room temperature, additional 6.9 mg ATP, 2 mg coenzyme A, and 0.25 mg purified 4CL were added and the reaction was incubated overnight. The CoA esters were purified on an SPE cartridge as described in Beuerle and Pichersky (2001).
# (§1) The FMT activity assay contained 100 mM MOPS pH 6.8, 1 mM dithiothreitol (DTT), 1 mM feruloyl-CoA, 1 mM coniferyl alcohol, 3.9 μg of purified FMT protein and deionized water to a volume of 50 μL. After a 30-minute incubation, 1 μL of 10 M hydrochloric acid was added to stop the reaction. Because the product synthesized in the reaction, coniferyl ferulate (CAFA), is insoluble, 50 μL of methanol was added to solubilize the CAFA. Prior to UPLC, protein and insoluble material were removed by filtering through an Amicon Ultracel 10K membrane filter (Millipore). The flow-through was analyzed using an Acquity Ultra Performance LC with an Acquity UPLC BEH C18 1.7 μm 2.1×100 mm column and the Acquity Console and Empower 2 Software, all from Waters Corporation. The solvents used in this method were solvent A, 0.1% trifluoroacetic acid, and solvent B, 100% acetonitrile. Samples were analyzed using the following gradient conditions, 13% B, for 5 minutes, 1 minute linear gradient to 42% B, held for 4 minutes, 1 minute linear gradient to 100% B, held for 1 minutes and 3 minutes at 13% B with a flow rate of 0.3 ml/minute. This method was then used to analyze a 10 μL injection of each assay reaction; standards for each of the substrates along with chemically synthesized CAFA were used to determine retention times for each compound.
# Purified recombinant enzyme was assayed for FMT activity using a reaction mixture containing 2 mM coniferyl alcohol, […], 100 mM HEPES pH 7.4 and 1 mM DTT. The second most abundant BAHD acyltransferase gene when incubated with Coniferyl alcohol and feruloyl-CoA produced a compound with the retention time of authentic coniferyl ferulate (CAFA) (FIG. 2). […] The addition of methanol to 50% after stopping the enzyme with acid was required to analyze the product by UPLC. The insolubility of the product made partial purification easy as the product was separated from the substrates by centrifugation.
# This partial purified product was analyzed by NMR. The identity of the product as CAFA was confirmed by ^1H-NMR (FIG. 3). The enzyme was tested with p-coumaryl alcohol (FIG. 4) and sinapyl alcohol (FIG. 5) in addition to coniferyl alcohol (FIG. 2). The enzyme is active with all three monolignols, i.e., p-coumaryl alcohol, coniferyl alcohol and sinapyl alcohol. The enzyme was tested with p-coumaroyl-CoA (FIG. 6) and caffeoyl-CoA (FIG. 7) as well as feruloyl-CoA (FIG. 2).
# [2] = Solubility of the enzyme product in the aqueous assay mixture; type: physicochemical; details: FMT reaction product; methanol to 50% needed to solubilize
# Protocol: as §1, with “compound. […]” for “compound.”
smiles,measurement,setting,value
COc1cc(/C=C/CO)ccc1O [coniferyl alcohol],FMT activity with monolignol as acyl acceptor,[1],active
CC(C)(COP(=O)(O)OP(=O)(O)OC[C@H]1O[C@@H](n2cnc3c(N)ncnc32)[C@H](O)[C@@H]1OP(=O)(O)O)[C@@H](O)C(=O)NCCC(=O)NCCSC(=O)/C=C/c1ccc(O)c(O)c1 [caffeoyl-CoA],product formed from CoA thioester as acyl donor,[1],very little product
COc1cc(/C=C/COC(=O)/C=C/c2ccc(O)c(OC)c2)ccc1O [coniferyl ferulate],solubility in water,[2],mostly insoluble in water
COc1cc(/C=C/CO)cc(OC)c1O [sinapyl alcohol],FMT activity with monolignol as acyl acceptor,[1],active
OC/C=C/c1ccc(O)cc1 [p-coumaryl alcohol],FMT activity with monolignol as acyl acceptor,[1],active
COc1cc(/C=C/C(=O)SCCNC(=O)CCNC(=O)[C@H](O)C(C)(C)COP(=O)(O)OP(=O)(O)OC[C@H]2O[C@@H](n3cnc4c(N)ncnc43)[C@H](O)[C@@H]2OP(=O)(O)O)ccc1O [feruloyl-CoA],product formed from CoA thioester as acyl donor,[1],substantial product
CC(C)(COP(=O)(O)OP(=O)(O)OC[C@H]1O[C@@H](n2cnc3c(N)ncnc32)[C@H](O)[C@@H]1OP(=O)(O)O)[C@@H](O)C(=O)NCCC(=O)NCCSC(=O)/C=C/c1ccc(O)cc1 [p-coumaroyl-CoA],product formed from CoA thioester as acyl donor,[1],very little product
